Where two headings read alike, the source gives them in different places.
Assays:
[1] = In vivo rat tracer distribution and brain uptake (LC-MS/MS); parameters: species or system Sprague-Dawley rats; settings: Sprague-Dawley, iv, 10 μg/kg i.v.
Protocol: Stock Formulation: Prepare a tracer stock solution at 0.5 mg/mL in 25% HP-BCD/PW (corrected for salt weight). Vortex thoroughly for 30 sec and place in bath sonication for 30 mins. Confirm the stock formulation is a clear solution or homogeneous suspension. Acid (10 μL acetic acid) or base (10 μL 5N NaOH), probe sonication, or a sonic bath may be used to aid in solubilization.
Final Dosing Formulation: If the stock formulation is a solution or homogeneous suspension, allow the stock solution to sit at room temperature for 5 min, and confirm and document the appearance of the stock formulation. Dilute the stock solution to the appropriate dose concentrations with 25% HP-BCD/PW. Vortex the final dosing solutions for 30 sec. Final tracer dosing solution is used for generation of the LC/MS/MS calibration standards in the appropriate matrix.
Study populations: Animal studies are performed under protocols approved by Eli Lilly and Company and PreClinOmics Institutional Animal Care and Use Committee. Twenty Sprague-Dawley rats weighing 200-300 g are obtained from Harlan Sprague Dawley Inc. (Indianapolis, Ind.) and are randomized into 4 groups of 5 animals each. Animals have access to food and water ad libitum before the study.
Live Phase Methods: Five animals per dose group are used. Each animal receives 10 μg/kg of the CGRP tracer compound administered intravenously in the lateral tail vein. Animals are euthanized by cervical dislocation followed by decapitation or live decapitation after 5, 10, 20 or 40 min survival intervals.
Trunk blood is collected in EDTA-coated Eppendorf tubes and stored on wet ice until study completion. The whole brain is rapidly removed, and lightly rinsed with sterile water. Frontal cortex, hippocampus, cerebellum, brainstem, and striatum brain tissues are dissected, weighed, stored in 1.5 mL Eppendorf tubes, and placed on wet ice until completion of live phase study.
Using a drug naïve test subject, blood and seven cortical brain tissues samples are collected for use in generating blank and standard curve samples.
Tissue—Tissue samples are kept on wet ice until the completion of the live phase. Tissue samples collected from test and naïve subjects are homogenized at PreClinOmics (Indianapolis, Ind., USA) and immediately taken to AIT Bioscience (Indianapolis, Ind., USA) on wet ice to be centrifuged along with an excel sheet indicating tissue weights, amount of ACN+0.1% HCOOH added to all tissue samples, and how the naive tissues were spiked for standards. Details on processing at PreClinOmics are as follows:
ACN containing 0.1% HCOOH is added to each tissue sample at a volume of four times the weight of the tissue sample (e.g., Add 600 μL ACN to a 150 mg brain tissue). The sample is homogenized via probe sonication. The standard curve is a 6-point curve with the range of 0.3-60 ng/g, linear regression, correlation coefficient, R^2, minimum of ≥0.95. Calibration standards are prepared from control tissue matrix homogenate (of the same organ) spiked with a calculated volume of standard (prepared from the tracer dosing solution used during the live phase). The homogenized tissue samples and spiked standards are transferred to AIT Bioscience on wet ice. Once at AIT Biosciences, all homogenized samples are centrifuged for 20 min at 14,000 rpm. The supernatant solution is diluted with an internal standard solution (1.0 ng/mL diphenhydramine in water) at a ratio of 1:4. Following dilution of the supernatant, if the total sample volume in the well plate is too small for injection, an additional dilution is performed using the mobile phase, ACN:water:0.1% HCOOH (20:80:0.1), at a ratio of 1:1. This solution is mixed thoroughly and analyzed via LC/MS/MS for tracer compound. Additional dilutions incurred due to small sample volume have an appropriate dilution factor applied during regression analysis.
Blood Samples—Whole blood samples are kept on wet ice until the completion of the live phase. […]

[2] = molecular target: T1, ABCB1, human P-glycoprotein (Pgp) (Homo sapiens, UniProt P08183); test: In vitro determination of efflux by Pgp, bi-directional transport across MDCKII cells; assay type: in vitro ADME; settings: MDCKII-ABCB1, 5 μM substrate, 60 min, B-A/A-B Papp ratios with and without inhibitor
T1 construct: host or cells: MDCKII cells
Protocol: Cell Culture: MDCKII cells stably expressing human wild-type ABCB1 (Pgp) are obtained from the Netherlands Cancer Institute (Amsterdam, The Netherlands). MDCK cells are maintained as described previously (Desai et al., Mol Pharm 10:1249-1261, 2013).
Bi-directional transport across MDCK cells: The assay is essentially conducted as described previously (Desai et al., Mol Pharm 10:1249-1261, 2013). Transport is measured in both directions across uninhibited and inhibited cell monolayers using a substrate concentration of 5 μM diluted from a 10 mM DMSO stock solution (final DMSO concentration of 0.05%) and a single 60-min time interval. […] The apparent permeability coefficients (Papp) are estimated as the slope of the mass transported per 60 min relative to the total recovered mass. The basal-to-apical (B-A)/apical-to-basal (A-B) Papp ratios are calculated in the absence or presence of inhibitor in each cell line for net efflux ratio (NER).

[3] = brain stem, read-out: Mean tracer concentration ± SEM, Brain Stem
[4] = cerebellum, read-out: Mean tracer concentration ± SEM, Cerebellum
[5] = frontal cortex, read-out: Mean tracer concentration ± SEM, Frontal Cortex
[6] = hippocampus, read-out: Mean tracer concentration ± SEM, Hippocampus
[7] = plasma, read-out: Mean tracer conc (plasma) ± SEM
[8] = striatum, read-out: Mean tracer concentration ± SEM, Striatum

T1 sequence (P08183 whole entry): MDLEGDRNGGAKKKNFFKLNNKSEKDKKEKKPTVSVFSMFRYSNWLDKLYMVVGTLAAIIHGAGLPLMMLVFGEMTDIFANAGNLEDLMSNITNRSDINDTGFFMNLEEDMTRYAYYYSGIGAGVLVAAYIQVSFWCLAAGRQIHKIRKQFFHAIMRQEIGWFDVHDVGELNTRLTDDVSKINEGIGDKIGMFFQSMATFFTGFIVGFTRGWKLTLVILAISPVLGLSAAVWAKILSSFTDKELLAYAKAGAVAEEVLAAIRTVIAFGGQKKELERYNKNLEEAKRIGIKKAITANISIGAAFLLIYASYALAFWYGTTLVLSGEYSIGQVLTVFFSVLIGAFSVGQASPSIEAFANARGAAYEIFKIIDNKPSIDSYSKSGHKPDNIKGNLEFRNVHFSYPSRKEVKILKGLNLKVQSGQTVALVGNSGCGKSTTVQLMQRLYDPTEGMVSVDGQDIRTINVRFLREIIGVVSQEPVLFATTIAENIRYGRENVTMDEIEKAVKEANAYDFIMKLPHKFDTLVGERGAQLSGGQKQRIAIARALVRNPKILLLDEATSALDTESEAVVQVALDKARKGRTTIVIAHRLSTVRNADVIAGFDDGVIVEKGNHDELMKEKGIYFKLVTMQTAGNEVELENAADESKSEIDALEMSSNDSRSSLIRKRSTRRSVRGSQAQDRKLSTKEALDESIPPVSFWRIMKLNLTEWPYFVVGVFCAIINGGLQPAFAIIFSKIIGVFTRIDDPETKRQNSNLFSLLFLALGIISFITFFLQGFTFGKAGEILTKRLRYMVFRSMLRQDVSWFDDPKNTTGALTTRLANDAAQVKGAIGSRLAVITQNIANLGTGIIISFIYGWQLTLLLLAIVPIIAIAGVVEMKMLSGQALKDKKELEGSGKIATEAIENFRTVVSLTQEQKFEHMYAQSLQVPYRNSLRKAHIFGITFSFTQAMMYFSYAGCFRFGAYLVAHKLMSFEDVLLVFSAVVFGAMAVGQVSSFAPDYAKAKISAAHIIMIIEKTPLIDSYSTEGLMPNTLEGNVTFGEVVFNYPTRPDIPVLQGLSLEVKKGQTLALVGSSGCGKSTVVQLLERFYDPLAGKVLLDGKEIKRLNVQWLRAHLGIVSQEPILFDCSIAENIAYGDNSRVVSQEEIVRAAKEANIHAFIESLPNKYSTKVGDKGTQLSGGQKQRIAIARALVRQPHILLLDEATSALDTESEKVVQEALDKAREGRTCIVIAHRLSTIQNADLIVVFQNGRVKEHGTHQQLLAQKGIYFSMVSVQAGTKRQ

SMILES	concentration at 5 min [1, 3] [ng/g]	concentration at 10 min [1, 3] [ng/g]	concentration at 20 min [1, 3] [ng/g]	concentration at 40 min [1, 3] [ng/g]	concentration at 5 min [1, 4] [ng/g]	concentration at 10 min [1, 4] [ng/g]	concentration at 20 min [1, 4] [ng/g]	concentration at 40 min [1, 4] [ng/g]	concentration at 5 min [1, 5] [ng/g]	concentration at 10 min [1, 5] [ng/g]	concentration at 20 min [1, 5] [ng/g]	concentration at 40 min [1, 5] [ng/g]	concentration at 5 min [1, 6] [ng/g]	concentration at 10 min [1, 6] [ng/g]	concentration at 20 min [1, 6] [ng/g]	concentration at 40 min [1, 6] [ng/g]	concentration at 5 min [1, 7] [ng/mL]	concentration at 10 min [1, 7] [ng/mL]	concentration at 20 min [1, 7] [ng/mL]	concentration at 40 min [1, 7] [ng/mL]	other results
Cc1cc(N2CC(F)C2)cc(OCc2ccc([C@@H](C)[C@@]3(C)C(=O)NC[C@@H]3CF)cc2)n1 [Example 3, (3R,4R)-3-[(1R)-1-[4-[[4-(3-fluoroazetidin-1-yl)-6-methyl-2-pyridyl]oxymethyl]phenyl]ethyl]-4-(fluoromethyl)-3-methyl-pyrrolidin-2-one]	3.13 ± 0.22	2.01 ± 0.17	1.18 ± 0.06	0.42 ± 0.02	3.06 ± 0.22	1.76 ± 0.13	0.88 ± 0.06	0.31 ± 0.02	3.55 ± 0.33	1.92 ± 0.16	0.92 ± 0.05	0.31 ± 0.02	2.9 ± 0.2	1.91 ± 0.14	1.01 ± 0.06	0.34 ± 0.02	6.2 ± 0.5	3.65 ± 0.26	1.94 ± 0.15	0.73 ± 0.04	concentration at 5 min [1, 8]: 3.57 ± 0.28 ng/g; concentration at 10 min [1, 8]: 2.14 ± 0.16 ng/g; concentration at 20 min [1, 8]: 1.09 ± 0.07 ng/g; concentration at 40 min [1, 8]: 0.36 ± 0.04 ng/g
Cc1cc(N2CCC2)cc(OCc2ccc([C@@H](C)[C@@]3(C)C(=O)NC[C@@H]3CF)cc2)n1 [Example 1, (3R,4R)-3-[(1R)-1-[4-[[4-(azetidin-1-yl)-6-methyl-2-pyridyl]oxymethyl]phenyl]ethyl]-4-(fluoromethyl)-3-methyl-pyrrolidin-2-one]	3.69 ± 0.29	2.46 ± 0.09	1.21 ± 0.08	0.41 ± 0.03	3.52 ± 0.16	1.91 ± 0.05	0.9 ± 0.06	0.28 ± 0.02	4.19 ± 0.29	2.27 ± 0.05	0.98 ± 0.06	0.29 ± 0.02	3.52 ± 0.32	2.33 ± 0.09	1.06 ± 0.07	0.33 ± 0.02	6.3 ± 0.63	3.37 ± 0.37	1.72 ± 0.12	0.48 ± 0.05	net efflux ratio (NER) for efflux by Pgp [2]: 1.9; concentration at 5 min [1, 8]: 3.94 ± 0.32 ng/g; concentration at 10 min [1, 8]: 2.44 ± 0.13 ng/g; concentration at 20 min [1, 8]: 1.12 ± 0.07 ng/g; concentration at 40 min [1, 8]: 0.34 ± 0.02 ng/g
Cc1cc(N2CC(F)C2)cc(OCc2ccc([C@@H](C)[C@@]3(C)C(=O)NC[C@@H]3C)cc2)n1 [Example 2, (3R,4R)-3-[(1R)-1-[4-[[4-(3-fluoroazetidin-1-yl)-6-methyl-2-pyridyl]oxymethyl]phenyl]ethyl]-3,4-dimethyl-pyrrolidin-2-one]	8.73 ± 0.51	5.27 ± 0.85	2.56 ± 0.33	1.08 ± 0.08	8.76 ± 0.48	4.78 ± 0.78	2.08 ± 0.22	0.88 ± 0.11	9.48 ± 0.57	5.07 ± 0.56	2.19 ± 0.24	0.8 ± 0.09	7.66 ± 0.42	4.64 ± 0.78	2.29 ± 0.36	0.74 ± 0.14	9.82 ± 0.82	5.54 ± 0.8	2.88 ± 0.37	1.03 ± 0.12	net efflux ratio (NER) for efflux by Pgp [2]: 1.6; concentration at 5 min [1, 8]: 9.36 ± 0.54 ng/g; concentration at 10 min [1, 8]: 5.23 ± 0.91 ng/g; concentration at 20 min [1, 8]: 2.42 ± 0.28 ng/g; concentration at 40 min [1, 8]: 1.06 ± 0.16 ng/g
